Read-outs that look alike come from different tables or passages of the source.
Assays:
[1] = tested on: Chinese hamster ovarian (CHO) cells; assay: in vitro cytotoxicity, MTT-assay; format: cell-based; conditions: for IC50: Cricetulus griseus, CHO; for SI (selectivity index): IC50 CHO/IC50 NF54
Protocol: An antiplasmodium assay was performed on this set of 18 novel quinoline-piperidine analogues to establish their potential as antimalarial agents. […] All compounds were screened for in vitro antiplasmodium activity against a CQ-sensitive strain of P. falciparum (NF54). Subsequently, compounds showing promising antiplasmodium activity were also tested against a CQ-resistant strain of P. falciparum (K1) and analysed for in vitro cytotoxicity against a mammalian cell line, Chinese hamster ovarian (CHO) cells, using the 3-(4,5-dimethylthiazol-2-yl)-2,5-diphenyltetrazoliumbromide (MTT)-assay. Continuous in vitro cultures of asexual erythrocyte stages of P. falciparum were maintained using a modified method of Trager and Jensen, and quantitative assessment of antiplasmodium activity in vitro was determined via the parasite lactate dehydrogenase assay using a modified method described by Makler. The test samples were tested in triplicate on one occasion. The MTT-assay was used as a colorimetric assay for cellular growth and survival, and compares well with other available assays. The tetrazolium salt MTT was used to measure all growth and chemosensitivity. Again, samples were tested in triplicate on one occasion. Chloroquine was used as reference compound in both antiplasmodium screenings, while emetine was used as known antiprotozoal agent in the MTT-assay.
The same stock solutions prepared for antiplasmodium testing were used for cytotoxicity testing. Test compounds were stored at −20 °C until use. Dilutions were prepared on the day of the experiment. Emetine was used as the reference drug in all experiments. The initial concentration of emetine was 100 μg/ml, which was serially diluted in complete medium with 10-fold dilutions to give 6 concentrations, the lowest being 0.001 μg/ml. The same dilution technique was applied to all the test samples. The highest concentration of solvent to which the cells were exposed to had no measurable effect on the cell viability (data not shown). The 50% inhibitory concentration (IC50) values were obtained from full dose-response curves, using a non-linear dose-response curve fitting analysis via GraphPad Prism v.4 software.

[2] = tested on: CQ-sensitive strain of P. falciparum (NF54); assay: in vitro antiplasmodium assay (parasite lactate dehydrogenase), CQ-sensitive strain; format: cell-based, Plasmodium falciparum; conditions: for IC50: Plasmodium falciparum
[3] = tested on: CQ-resistant strain of P. falciparum (K1); assay: in vitro antiplasmodium assay (parasite lactate dehydrogenase), CQ-resistant strain; format: cell-based, Plasmodium falciparum; conditions: for IC50: Plasmodium falciparum; for activity lowered by omitting the 7-chlorine atom: CQ-resistant strain, versus 7-chloro analogues
[4] = cytotoxicity, CHO cells, MTT, mean ± SD
[5] = CQ-sensitive P. falciparum NF54, mean ± SD, read-out: NF54 IC50
[6] = CQ-resistant P. falciparum K1, mean ± SD, read-out: K1 IC50

SMILES | IC50 [1, 4] [nM] | SI (selectivity index) [1] | IC50 [2, 5] [nM] | IC50 [3, 6] [nM] | other results
C=CCN1C[C@@H](OCc2ccccc2)[C@@H](CNc2ccnc3cc(Cl)ccc23)C(C)(C)C1 (relative stereo) [Compound 16a, N-[(cis-1-Allyl-5-benzyloxy-3,3-dimethylpiperidin-4-yl)methyl]-7-chloroquinolin-4-amine] | 122000 ± 41400 | 10,149 | 12 ± 1 | 26 ± 5.7 | 
C=CCN1C[C@@H](OCc2ccccc2)[C@@H](CNCc2ccnc3ccccc23)C(C)(C)C1 (relative stereo) [Compound 17a, N-[(cis-1-Allyl-5-benzyloxy-3,3-dimethylpiperidin-4-yl)methyl]-1-(quinolin-4-yl)methanamine] | 139000 ± 14100 | 59 | 2370 ± 1050 | 3660 ± 430 | 
C=CCN1C[C@@H](OCc2ccccc2)[C@@H](CNCc2ccc3ccccc3n2)C(C)(C)C1 (relative stereo) [Compound 17c, N-[(cis-1-Allyl-5-benzyloxy-3,3-dimethylpiperidin-4-yl)methyl]-1-(quinolin-2-yl)methanamine] | 211000 ± 31400 | 134 | 1570 ± 170 | 2820 ± 140 | 
C=CCN1C[C@@H](OCc2ccccc2)[C@@H](CNCc2cc3ccccc3nc2Cl)C(C)(C)C1 (relative stereo) [Compound 17f, N-[(cis-1-Allyl-5-benzyloxy-3,3-dimethylpiperidin-4-yl)methyl]-1-(2-chloroquinolin-3-yl)methanamine] | 199000 ± 23300 | 156 | 1280 ± 330 | 1950 ± 78 | 
C=CCN1C[C@@H](OC)[C@@H](CNCc2ccnc3ccccc23)C(C)(C)C1 (relative stereo) [Compound 17h, N-[(cis-1-Allyl-5-methoxy-3,3-dimethylpiperidin-4-yl)methyl]-1-(quinolin-4-yl)methanamine] |  |  | 18000 ± 2440 |  | 
CCN(CC)CCCC(C)Nc1ccnc2cc(Cl)ccc12 (centres unmarked) [Chloroquine, reference compound] |  |  |  |  | IC50 ([2]; NF54, read-out: IC50 (NF54), footnote reference value, subset c): 11.3 nM; IC50 ([2]; NF54, read-out: IC50 (NF54), footnote reference value, subset d): 9.5 nM; IC50 ([2]; NF54, read-out: IC50 (NF54), footnote reference value, subset e): 20 nM; IC50 ([2]; NF54, read-out: NF54 IC50, reference value for compound subset c): 11 ± 1 nM; IC50 ([2]; NF54, read-out: NF54 IC50, reference value for compound subset d): 10 nM; IC50 ([2]; NF54, read-out: NF54 IC50, reference value for compound subset e): 20 nM; IC50 ([3]; K1, read-out: IC50 (K1)): 166 nM
COc1ccc(CNCC2CC3(c4ccccc4)CCN2C3)cc1 (centres unmarked) [Compound 7, 2-[N-(4-methoxybenzyl)aminomethyl]-4-phenyl-1-azabicyclo[2.2.1]heptane] |  |  | 1550 ± 130 |  | antiplasmodium activity (in words) ([2]; in vitro, strain not given): moderate antiplasmodium activity
Clc1ccc2c(NCC3CC4(c5ccccc5)CCN3C4)ccnc2c1 (centres unmarked) [Compound 11a, 7-Chloro-N-[(4-phenyl-1-azabicyclo[2.2.1]heptan-2-yl)methyl]quinolin-4-amine] | 26000 ± 2900 | 1266 | 21 ± 5 | 33 ± 6.2 | 
c1ccc(C23CCN(C2)C(CNc2ccnc4ccccc24)C3)cc1 (centres unmarked) [Compound 11b, N-[(4-Phenyl-1-azabicyclo[2.2.1]heptan-2-yl)methyl]quinolin-4-amine] | 11200 ± 2100 | 250 | 45 ± 7 | 69 ± 11.3 | activity lowered by omitting the 7-chlorine atom [3]: 2 to 3 times
c1ccc(C23CCN(C2)C(CNCc2ccnc4ccccc24)C3)cc1 (centres unmarked) [Compound 12a, N-[(4-Phenyl-1-azabicyclo[2.2.1]heptan-2-yl)methyl]-1-(quinolin-4-yl)methanamine] |  |  | 6770 ± 250 |  | 
c1ccc(C23CCN(C2)C(CNCc2cnc4ccccc4c2)C3)cc1 (centres unmarked) [Compound 12b, N-[(4-Phenyl-1-azabicyclo[2.2.1]heptan-2-yl)methyl]-1-(quinolin-3-yl)methanamine] |  |  | 4070 ± 740 |  | 
c1ccc(C23CCN(C2)C(CNCc2ccc4ccccc4n2)C3)cc1 (centres unmarked) [Compound 12c, N-[(4-Phenyl-1-azabicyclo[2.2.1]heptan-2-yl)methyl]-1-(quinolin-2-yl)methanamine] |  |  | 1270 ± 40 |  | 
Oc1cccc2ccc(CNCC3CC4(c5ccccc5)CCN3C4)nc12 (centres unmarked) [Compound 12d, 2-{N-[(4-Phenyl-1-azabicyclo[2.2.1]heptan-2-yl)methyl]aminomethyl}quinolin-8-ol] | 103000 ± 19700 | 142 | 720 ± 30 | 4640 ± 130 | 
Clc1nc2ccccc2cc1CNCC1CC2(c3ccccc3)CCN1C2 (centres unmarked) [Compound 12e, N-[(4-Phenyl-1-azabicyclo[2.2.1]heptan-2-yl)methyl]-1-(2-chloroquinolin-3-yl)methanamine] |  |  | 3600 ± 310 |  | 
C=CCN1CCC(CNc2ccnc3cc(Cl)ccc23)C(C)(C)C1 (centres unmarked) [Compound 16b, N-[(1-Allyl-3,3-dimethylpiperidin-4-yl)methyl]-7-chloroquinolin-4-amine] | 29900 ± 1200 | 1991 | 15 ± 1.7 | 25 ± 8.9 | 
C=CCN1CCC(CNc2ccnc3ccccc23)C(C)(C)C1 (centres unmarked) [Compound 16c, N-[(1-Allyl-3,3-dimethylpiperidin-4-yl)methyl]quinolin-4-amine] | 27000 ± 3200 | 114 | 236 ± 32 | 68.5 ± 7.8 | activity lowered by omitting the 7-chlorine atom [3]: 2 to 3 times
C=CCN1CCC(CNCc2ccnc3ccccc23)C(C)(C)C1 (centres unmarked) [Compound 17b, N-[(1-Allyl-3,3-dimethylpiperidin-4-yl)methyl]-1-(quinolin-4-yl)methanamine] |  |  | 4940 ± 1180 |  | 
C=CCN1CCC(CNCc2ccc3ccccc3n2)C(C)(C)C1 (centres unmarked) [Compound 17d, N-[(1-Allyl-3,3-dimethylpiperidin-4-yl)methyl]-1-(quinolin-2-yl)methanamine] |  |  | 3660 ± 820 |  | 
C=CCN1CCC(CNCc2ccc3cccc(O)c3n2)C(C)(C)C1 (centres unmarked) [Compound 17e, 2-{N-[(1-Allyl-3,3-dimethylpiperidin-4-yl)methyl]aminomethyl}quinolin-8-ol] |  |  | 2890 ± 1060 |  | 
C=CCN1CCC(CNCc2cc3ccccc3nc2Cl)C(C)(C)C1 (centres unmarked) [Compound 17g, N-[(1-Allyl-3,3-dimethylpiperidin-4-yl)methyl]-1-(2-chloroquinolin-3-yl)methanamine] |  |  | 7750 ± 1440 |  | 
CC[C@H]1CN2CCc3cc(OC)c(OC)cc3[C@@H]2C[C@@H]1C[C@H]1NCCc2cc(OC)c(OC)cc21 [Emetine, reference compound] |  |  |  |  | IC50 ([1]; reference value for compound subset c): 40 ± 10 nM; IC50 ([1]; reference value for compound subset d): 140 nM; IC50 ([1]; reference value for compound subset e): 30 nM

Reference: paper PMC7294232, “Synthesis and biological evaluation of novel quinoline-piperidine scaffolds as antiplasmodium agents” (European Journal of Medicinal Chemistry, 2020)
